Test results: article PMC2806516 (Biochemistry, 2010)

How the values were obtained:
HpaA [1] = target: T1, HpaA (Pseudomonas aeruginosa, UniProt Q9HWT7); experiment: stopped-flow; format: binding
T1 sequence (Q9HWT7 1-520): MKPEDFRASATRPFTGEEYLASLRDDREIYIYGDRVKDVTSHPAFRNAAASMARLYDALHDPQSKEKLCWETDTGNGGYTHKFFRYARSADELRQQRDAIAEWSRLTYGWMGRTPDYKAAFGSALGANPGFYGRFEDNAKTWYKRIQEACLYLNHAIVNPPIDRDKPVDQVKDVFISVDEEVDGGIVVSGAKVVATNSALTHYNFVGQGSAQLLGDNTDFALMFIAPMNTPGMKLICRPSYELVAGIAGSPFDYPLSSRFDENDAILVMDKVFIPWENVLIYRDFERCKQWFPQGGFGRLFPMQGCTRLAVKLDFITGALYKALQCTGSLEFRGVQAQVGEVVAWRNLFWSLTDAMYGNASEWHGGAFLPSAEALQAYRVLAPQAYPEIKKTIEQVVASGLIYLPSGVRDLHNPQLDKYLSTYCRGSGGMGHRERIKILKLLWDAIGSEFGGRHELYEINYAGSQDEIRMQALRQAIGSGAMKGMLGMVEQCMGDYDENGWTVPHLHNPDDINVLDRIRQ

HpaC [2] = target: T2, HpaC (Pseudomonas aeruginosa, UniProt Q9HWT6); experiment: stopped-flow; format: binding
T2 sequence (Q9HWT6 1-170): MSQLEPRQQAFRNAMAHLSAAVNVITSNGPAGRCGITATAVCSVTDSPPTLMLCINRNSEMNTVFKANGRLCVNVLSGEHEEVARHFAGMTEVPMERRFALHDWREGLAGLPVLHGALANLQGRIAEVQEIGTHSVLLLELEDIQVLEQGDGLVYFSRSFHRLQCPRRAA

HpaC [3] = target: T2, HpaC; experiment: fluorimetric titration; format: binding
HpaA [4] = target: T1, HpaA; experiment: absorption spectral titration; format: binding
[5] = target: HpaA, oxygenase of p-hydroxyphenylacetate 3-hydroxylase (HPAH) from Pseudomonas aeruginosa, N-terminal His-tagged (P. aeruginosa); experiment: SEC

Compound `Cc1cc2c(cc1C)N(C[C@H](O)[C@H](O)[C@H](O)COP(=O)(O)OP(=O)(O)OC[C@H]1O[C@@H](n3cnc4c(N)ncnc43)[C@H](O)[C@@H]1O)c1[nH]c(=O)[nH]c(=O)c1N2` [FADH^−] has a Kd (HpaA [1]) of no more than 2 µM and a Kd (HpaC [2]) of roughly 20 µM.
In the case of `Cc1cc2nc3c(=O)[nH]c(=O)nc-3n(C[C@H](O)[C@H](O)[C@H](O)COP(=O)(O)OP(=O)(O)OC[C@H]3O[C@@H](n4cnc5c(N)ncnc54)[C@H](O)[C@@H]3O)c2cc1C` [FAD], the Kd (HpaC [3]) is reported as 3 µM and the Kd (HpaA [4]) is reported as no less than 250 µM.
For “HpaA, oxygenase of p-hydroxyphenylacetate 3-hydroxylase (HPAH) from Pseudomonas aeruginosa, N-terminal His-tagged (enzyme)”, the stoichiometry N [5] was 2.
